This is an account of results in patent US20240009213A1, “TREATMENT FOR VIRAL INFECTION” (priority 2020, published 2024).

Assay [1] deals with influenza A/California/07/2009 (H1N1), influenza A/PR/8/1934 (H1N1), influenza A/Vietnam/1194/2004 (H5N1). Kind of assay: microbe, parasite or virus in culture. In kind it is cell-based, influenza A virus. Particulars: for IC50: Influenza A virus, MDCK, 50 h.
The test system of assay [2] is influenza A/PuertoRico/1934 (H1N1). Description: Protection of mice against lethal influenza H1N1 challenge. The format is in vivo, BALB/c mice. To be noted: 5×LD50 influenza A/PuertoRico/1934 (H1N1) day 0; 25 mg/kg orally once daily day 1 to day 7.
Assay [3] relates to SARS-CoV-2. Kind of assay: Protection of mice against lethal SARS-CoV-2 challenge. The format is in vivo, F1 mice of BALB/c/C57BL6 mice. To be noted: 5×LD50 SARS-CoV-2 day 0; 25 mg/kg orally once daily day 1 to day 7.
Assay [4] concerns SARS-CoV-2. The format is cell-based.

The IC50 is the concentration that inhibits the measured activity by half. `C[C@@H](Oc1cc(-c2cnn(C3CCNCC3)c2)cnc1N)c1c(Cl)ccc(F)c1Cl` [crizotinib, 3-[(1R)-1-(2,6-dichloro-3-fluorophenyl)ethoxy]-5-(1-piperidin-4-ylpyrazol-4-yl)pyridin-2-amine] yielded an IC50 in assay [1] of 1 to 4 µM. Besides, in assay [2], the survival of mice was 38%. `Cc1cc(Nc2ncc(Cl)c(Nc3ccccc3S(=O)(=O)C(C)C)n2)c(OC(C)C)cc1C1CCNCC1` [ceritinib, 5-chloro-2-N-(5-methyl-4-piperidin-4-yl-2-propan-2-yloxyphenyl)-4-N-(2-propan-2-ylsulfonylphenyl)pyrimidine-2,4-diamine] registered an IC50 in assay [1] of 0.1 to 1 µM. The survival of mice in the assay on SARS-CoV-2 [3] turned out to be 29%. On to `C[C@H]1Oc2cc(cnc2N)-c2c(nn(C)c2C#N)CN(C)C(=O)c2ccc(F)cc21` [lorlatinib], for which, in the assay with SARS-CoV-2 [4], the “inhibition of SARS-CoV-2” value is “but not lorlatinib, inhibited SARS-CoV-2”. In assay [1], the “virus assembly/secretion (viral OD, viral titres)” value is “viral titres remain high for all doses tested”. With `CCc1cc2c(cc1N1CCC(N3CCOCC3)CC1)C(C)(C)c1[nH]c3cc(C#N)ccc3c1C2=O` [alectinib, 9-ethyl-6,6-dimethyl-8-(4-morpholin-4-ylpiperidin-1-yl)-11-oxo-5H-benzo[b]carbazole-3-carbonitrile], the IC50 in assay [1] lay in the range of 1 to 4 µM. The same measure, in the same setting: under `CN1CCN(c2ccc(C(=O)Nc3n[nH]c4ccc(Cc5cc(F)cc(F)c5)cc34)c(NC3CCOCC3)c2)CC1` [entrectinib, N-[5-[(3,5-difluorophenyl)methyl]-1H-indazol-3-yl]-4-(4-methylpiperazin-1-yl)-2-(oxan-4-ylamino)benzamide] stands 1 to 4 µM.

Regarding `COc1cc(N2CCC(N3CCN(C)CC3)CC2)ccc1Nc1ncc(Cl)c(Nc2ccccc2P(C)(C)=O)n1` [brigatinib, 5-chloro-4-N-(2-dimethylphosphorylphenyl)-2-N-[2-methoxy-4-[4-(4-methylpiperazin-1-yl)piperidin-1-yl]phenyl]pyrimidine-2,4-diamine], in assay [1], the IC50 lay in the range of 1 to 4 µM. Further, the survival of mice in assay [2] was found to be 12.5%. The molecule `C[C@@H]1CN(C(=O)c2ccc(NC(=O)c3cc(O[C@H](C)c4c(Cl)ccc(F)c4Cl)c(N)nn3)cc2)C[C@H](C)N1` [ensartinib, 6-amino-5-[(1R)-1-(2,6-dichloro-3-fluorophenyl)ethoxy]-N-[4-[(3R,5S)-3,5-dimethylpiperazine-1-carbonyl]phenyl]pyridazine-3-carboxamide] came in with an IC50 in assay [1] of 1 to 4 µM.
